Source: US11326131B2, “Cleaning composition” (AMITY LIMITED, priority 2008, dated 2022)

Tested on: polio virus
Type: cell-based
Conditions: tested on its own

`CCCCCCCCCCCCN(CCCN)CCCN` [dodecyl dipropylene triamine, Dodecyl dipropylene triamine] was tested, and the “effect against the polio virus” value was “no effect”.
